# From patent US9862730B2, “Imidazothiadiazole derivatives as protease activated receptor 4 (PAR4) inhibitors for treating platelet aggregation” (BRISTOL-MYERS SQUIBB COMPANY, priority 2012, dated 2018)
# pIC50: −log10 of the molar value.
# Target: PAR4 (Homo sapiens (Human), UniProt Q96RI0)
# Experiment: FLIPR assay in PAR4-expressing HEK293 cells (PAR4 antagonist activity, calcium mobilization)
# Assay type: cell-based
# Conditions: FLIPR assay as described in Example A
# Procedure, shortened: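 Calcium-flux antagonist readout: compounds preincubated 30 min at room temperature with PAR4-transfected HEK293 cells in HBSS with 10 mM HEPES (0.67% DMSO final), then agonist peptide added. Agonist activity checked on compound addition; cells carry endogenous PAR1.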
# Chain of PAR4 (Q96RI0 18-385): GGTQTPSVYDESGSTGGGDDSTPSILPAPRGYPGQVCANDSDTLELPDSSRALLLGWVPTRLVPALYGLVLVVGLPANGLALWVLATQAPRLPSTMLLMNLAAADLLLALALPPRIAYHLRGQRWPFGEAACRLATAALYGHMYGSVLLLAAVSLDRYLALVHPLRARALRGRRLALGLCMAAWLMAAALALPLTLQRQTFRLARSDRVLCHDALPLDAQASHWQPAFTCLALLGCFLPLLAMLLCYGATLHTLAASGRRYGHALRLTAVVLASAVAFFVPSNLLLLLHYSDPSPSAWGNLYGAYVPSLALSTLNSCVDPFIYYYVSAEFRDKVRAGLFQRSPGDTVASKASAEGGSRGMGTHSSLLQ
row,pIC50,SMILES
1,7.32,COCCOc1cccc2oc(-c3cn4nc(OC)sc4n3)cc12 [Example 256]
2,7.30,CSc1nn2cc(-c3cc4cccc(F)c4o3)nc2s1 [Example 257]
3,8.48,CSc1nn2cc(-c3cc4c(Br)cccc4o3)nc2s1 [Example 258]
4,6.49,Fc1cccc2cc(-c3cn4nc(Br)sc4n3)oc12 [Example 259]
5,8.35,COc1ccc2cc(-c3cn4nc(Br)sc4n3)oc2c1 [Example 260]
6,8.34,COc1cc2oc(-c3cn4nc(SC)sc4n3)cc2cc1Br [Example 261]
7,8.37,CSc1nn2cc(-c3cc4c(F)cccc4o3)nc2s1 [Example 262]
8,7.68,COc1nn2cc(-c3cc4cccc(F)c4o3)nc2s1 [Example 263]
9,7.42,Fc1ccc2cc(-c3cn4nc(Br)sc4n3)oc2c1 [Example 264]
10,7.55,COc1cc(OCc2ccccc2)c2cc(-c3cn4nc(C(C)(F)F)sc4n3)oc2c1 [Example 265]
11,7.37,COc1nn2cc(-c3cc4c(OCc5ccc(F)cc5)cccc4o3)nc2s1 [Example 266]
12,8.12,CCOc1cc(OC)cc2oc(-c3cn4nc(Br)sc4n3)cc12 [Example 267]
13,7.66,COCCOc1cccc2oc(-c3cn4nc(SC)sc4n3)cc12 [Example 268]
14,7.13,CSc1nn2cc(-c3cc4cc(Cl)c(C)cc4o3)nc2s1 [Example 269]
15,7.71,COc1ccc2cc(-c3cn4nc(C(C)(F)F)sc4n3)oc2c1 [Example 271]
16,7.54,COc1cc2oc(-c3cn4nc(C(C)(F)F)sc4n3)cc2cc1Br [Example 272]
17,6.75,CC(F)(F)c1nn2cc(-c3cc4c(F)cccc4o3)nc2s1 [Example 273]
18,5.71,Cc1cc2oc(-c3cn4nc(C(C)(F)F)sc4n3)cc2cc1Cl [Example 274]
19,7.64,COc1cc2oc(-c3cn4nc(Br)sc4n3)cc2cc1Br [Example 275]
20,6.92,Fc1cccc2oc(-c3cn4nc(Br)sc4n3)cc12 [Example 276]

row,pIC50,SMILES
1,6.29,Cc1cc2oc(-c3cn4nc(Br)sc4n3)cc2cc1Cl [Example 277]
2,7.28,COc1nn2cc(-c3cc4cc(Br)c(OC)cc4o3)nc2s1 [Example 278]
3,8.46,COc1nn2cc(-c3cc4c(F)cccc4o3)nc2s1 [Example 279]
4,5.87,COc1nn2cc(-c3cc4c(OCc5cccc(C#N)c5)cccc4o3)nc2s1 [Example 281]
5,5.57,COc1cc(Br)c2oc(-c3cn4nc(SC)sc4n3)cc2c1 [Example 283]
6,6.86,COc1cc(Br)cc2cc(-c3cn4nc(SC)sc4n3)oc12 [Example 284]
7,6.50,COc1ccc(Br)c2cc(-c3cn4nc(Br)sc4n3)oc12 [Example 285]
8,6.56,COc1cc(Br)cc2cc(-c3cn4nc(Br)sc4n3)oc12 [Example 286]
9,8.09,CSc1nn2cc(-c3cc4c(Cl)cc(Cl)cc4o3)nc2s1 [Example 287]
10,7.03,Clc1cc(Cl)c2cc(-c3cn4nc(Br)sc4n3)oc2c1 [Example 288]
11,7.53,COc1nn2cc(-c3cc4c(Br)ccc(OC)c4o3)nc2s1 [Example 289]
12,8.32,COc1ccc2cc(-c3cn4nc(C(C)F)sc4n3)oc2c1 (stereo not shown) [Example 293]
13,7.71,COc1cc(OC)c2cc(-c3cn4nc(Br)sc4n3)oc2c1 [Example 294]
14,7.92,CSc1nn2cc(-c3cc4c(C)cc(C)cc4o3)nc2s1 [Example 295]
15,6.97,Cc1cc(C)c2cc(-c3cn4nc(Br)sc4n3)oc2c1 [Example 296]
16,8.23,COc1nn2cc(-c3cc4c(C)cc(C)cc4o3)nc2s1 [Example 297]
17,7.73,COc1cc(OC(C)C)c2cc(-c3cn4nc(SC)sc4n3)oc2c1 [Example 298]
18,7.10,COc1cc(OC(C)C)c2cc(-c3cn4nc(Br)sc4n3)oc2c1 [Example 299]
19,8.46,COc1cc(OC(C)C)c2cc(-c3cn4nc(OC)sc4n3)oc2c1 [Example 300]
20,7.87,COc1nn2cc(-c3cc4c(C(F)(F)F)cc(C)nc4o3)nc2s1 [Example 305]
